Reference: paper PMC12654176 (Microorganisms, 2025)
pIC50: −log10 of the molar value.

Test system: H10NX AIVs NA activity
Assay type: biochemical

CC(=O)N[C@H]1[C@H]([C@H](O)[C@H](O)CO)OC(C(=O)O)=C[C@@H]1N=C(N)N [Zanamivir, zanamivir]
susceptibility of H10NX isolates to the drug (phenotypic assay): sensitive | pIC50 (read-out: mean IC50 values, range over the H10NX isolates tested): 8.89 to 9.15
